Results on 6 compounds are retold here after patent US11970494B2, “6-heteroaryloxy benzimidazoles and azabenzimidazoles as JAK2 inhibitors” (Ajax Therapeutics, Inc., priority 2021, dated 2024).

Converted amounts (≈) assume the structure as drawn. Some results are limits rather than exact numbers.

A word on the Kd: it is a measure of binding affinity in units of concentration. Broadly, the solubility is how much of the substance goes into solution per volume. A high value points to a readily soluble substance.

Data set [1] has as its target T1, JAK2 (JH1 domain-catalytic, Y1007F,Y1008F) kinase (Homo sapiens, UniProt O60674, Y1007F/Y1008F).
T1 construct: made in house; host or cells: transiently transfected HEK293 cells
Put plainly: JAK2 Binding Assay (JAK2 JH1 Domain Binding Assay). The settings on record: JAK2 JH1 domain binding, qPCR detection; read-out: JAK2 Kd. Background: In qPCR the cycle at which signal appears reflects the starting amount.

The target in another data set is T2, JAK1 (Homo sapiens, UniProt P23458).
T2 construct: made in house; host or cells: T7 phage in BL21-derived E. coli or HEK-293 cells
Kind of data set: JAK Family Selectivity Assay: JAK1 vs JAK2 binding affinity. The conditions noted are these: Kd JAK1 over Kd JAK2. Here is the method: (§1) Provided compounds are evaluated for selectivity by comparing their JAK2 binding affinity (Kd) in the above JAK2 Binding Assay with their binding affinity (Kd) for one or more other kinases. Binding affinity for other kinases is determined as follows: Kinase-tagged T7 phage strains are prepared in an E. coli host derived from the BL21 strain. E. coli are grown to log-phase and infected with T7 phage and incubated with shaking at 32° C. until lysis. The lysates are centrifuged and filtered to remove cell debris. The remaining kinases are produced in HEK-293 cells and subsequently tagged with DNA for qPCR detection. Streptavidin-coated magnetic beads are treated with biotinylated small molecule ligands for 30 minutes at room temperature to generate affinity resins for kinase assays. The liganded beads are blocked with excess biotin and washed with blocking buffer (SeaBlock (Pierce), 1% BSA, 0.05% Tween 20, 1 mM DTT) to remove unbound ligand and to reduce non-specific binding. Binding reactions are assembled by combining kinases, liganded affinity beads, and test compounds in 1× binding buffer (20% SeaBlock, 0.17×PBS, 0.05% Tween 20, 6 mM DTT). Test compounds are prepared as 111× stocks in 100% DMSO. Kds are determined using an 11-point 3-fold compound dilution series with three DMSO control points. All compounds for Kd measurements are distributed by acoustic transfer (non-contact dispensing) in 100% DMSO. The compounds are then diluted directly into the assays such that the final concentration of DMSO is 0.9%. All reactions are performed in polypropylene 384-well plate. Each has a final volume of 0.02 ml. The assay plates are incubated at room temperature with shaking for 1 hour and the affinity beads are washed with wash buffer (1×PBS, 0.05% Tween 20). The beads are then re-suspended in elution buffer (1× PBS, 0.05% Tween 20, 0.5 μM non-biotinylated affinity ligand) and incubated at room temperature with shaking for 30 minutes. The kinase concentration in the eluates is measured by qPCR. […] In some embodiments, provided compounds may be JAK2-selective over one or more of the following kinases: JAK1, JAK3, and Tyk2.

The target of a further data set is T3, JAK3 (Homo sapiens, UniProt P52333).
T3 construct: made in house; host or cells: T7 phage in BL21-derived E. coli or HEK-293 cells
T3 sequence (P52333 1-1124): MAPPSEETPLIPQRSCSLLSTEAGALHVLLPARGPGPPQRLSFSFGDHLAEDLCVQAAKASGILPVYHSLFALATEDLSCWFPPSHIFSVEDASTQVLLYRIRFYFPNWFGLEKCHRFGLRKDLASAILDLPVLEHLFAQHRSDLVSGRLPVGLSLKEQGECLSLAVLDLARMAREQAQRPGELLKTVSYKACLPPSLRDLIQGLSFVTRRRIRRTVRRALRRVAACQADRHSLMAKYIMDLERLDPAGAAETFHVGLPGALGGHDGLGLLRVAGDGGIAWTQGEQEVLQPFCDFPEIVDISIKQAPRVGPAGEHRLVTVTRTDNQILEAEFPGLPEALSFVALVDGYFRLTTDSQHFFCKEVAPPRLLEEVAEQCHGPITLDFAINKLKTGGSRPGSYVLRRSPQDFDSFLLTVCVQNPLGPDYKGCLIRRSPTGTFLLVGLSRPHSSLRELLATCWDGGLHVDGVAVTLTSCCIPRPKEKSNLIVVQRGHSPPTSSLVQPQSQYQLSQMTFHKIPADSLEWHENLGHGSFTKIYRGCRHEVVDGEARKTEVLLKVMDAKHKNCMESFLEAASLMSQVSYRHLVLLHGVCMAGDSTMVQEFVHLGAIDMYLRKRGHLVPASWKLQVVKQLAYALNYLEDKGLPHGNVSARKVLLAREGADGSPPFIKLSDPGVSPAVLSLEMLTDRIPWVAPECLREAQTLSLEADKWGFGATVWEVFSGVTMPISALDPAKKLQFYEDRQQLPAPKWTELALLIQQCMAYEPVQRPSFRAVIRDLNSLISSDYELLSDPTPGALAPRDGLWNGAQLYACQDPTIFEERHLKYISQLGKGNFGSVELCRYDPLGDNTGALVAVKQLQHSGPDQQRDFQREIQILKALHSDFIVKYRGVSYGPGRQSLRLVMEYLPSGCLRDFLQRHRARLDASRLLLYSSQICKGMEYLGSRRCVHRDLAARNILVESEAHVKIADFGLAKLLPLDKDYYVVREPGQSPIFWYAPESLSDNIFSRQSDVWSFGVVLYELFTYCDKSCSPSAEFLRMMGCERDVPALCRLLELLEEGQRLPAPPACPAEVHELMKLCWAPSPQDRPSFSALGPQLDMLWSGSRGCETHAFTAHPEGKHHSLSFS
Put plainly: JAK Family Selectivity Assay: JAK3 vs JAK2 binding affinity. The conditions noted are these: Kd JAK3 over Kd JAK2. Here is the method:
as §1

The target in a further data set is T4, Tyk2 (Homo sapiens, UniProt P29597).
T4 construct: made in house; host or cells: T7 phage in BL21-derived E. coli or HEK-293 cells
Put plainly: JAK Family Selectivity Assay: Tyk2 vs JAK2 binding affinity. The conditions noted are these: Kd TYK2 over Kd JAK2. Here is the method:
as §1

The next data set can be described thus: Kinetic Solubility Assay. Format: physicochemical. The conditions noted are these: aqueous buffer, kinetic from dmso stock, kinetic solubility in PBS (pH 4.0 and pH 7.4 in method; pH of table values not stated), RT. Here is the method:
Stock solutions of test compounds are prepared in DMSO at the concentration of 10 mM, and a stock solution of control compound is prepared in DMSO at the concentration of 30 mM. Diclofenac is used as positive control in the assay. 30 μL stock solution of each compound is placed into their a 96-well rack, followed by adding 970 μL of PBS at pH 4.0 and pH 7.4 into each vial of the cap-less solubility sample plate. This study is performed in duplicate. One stir stick is added to each vial and then vials are sealed using a molded PTDE/SIL 96-Well Plate Cover. The solubility sample plate is transferred to the Thermomixer comfort plate shaker and incubated at RT for 2 hours with shaking at 1100 rpm. After 2 hours incubation, stir sticks are removed using a big magnet and all samples from the solubility sample plate are transferred into the filter plate. All the samples are filtered by vacuum manifold. The filtered samples are diluted with methanol. Samples are analyzed by LC-MS/MS and quantified against a standard of known concentration in DMSO using LC coupled with Mass spectral peak identification and quantitation. The solubility values of the test compounds are calculated as follows, wherein INJ VOL is injection volume, DF is dilution factor, and STD is standard: […]

T1 sequence (O60674 849-1124 Y1007F/Y1008F limits assumed): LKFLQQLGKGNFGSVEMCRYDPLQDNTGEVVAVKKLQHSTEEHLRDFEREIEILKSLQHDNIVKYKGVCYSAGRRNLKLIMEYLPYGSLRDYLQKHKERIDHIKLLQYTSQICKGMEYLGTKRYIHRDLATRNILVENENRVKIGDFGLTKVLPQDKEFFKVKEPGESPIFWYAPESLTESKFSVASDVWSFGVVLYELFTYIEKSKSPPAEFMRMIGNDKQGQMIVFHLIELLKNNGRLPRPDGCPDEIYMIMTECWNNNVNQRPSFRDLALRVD
T4 sequence (P29597 whole entry): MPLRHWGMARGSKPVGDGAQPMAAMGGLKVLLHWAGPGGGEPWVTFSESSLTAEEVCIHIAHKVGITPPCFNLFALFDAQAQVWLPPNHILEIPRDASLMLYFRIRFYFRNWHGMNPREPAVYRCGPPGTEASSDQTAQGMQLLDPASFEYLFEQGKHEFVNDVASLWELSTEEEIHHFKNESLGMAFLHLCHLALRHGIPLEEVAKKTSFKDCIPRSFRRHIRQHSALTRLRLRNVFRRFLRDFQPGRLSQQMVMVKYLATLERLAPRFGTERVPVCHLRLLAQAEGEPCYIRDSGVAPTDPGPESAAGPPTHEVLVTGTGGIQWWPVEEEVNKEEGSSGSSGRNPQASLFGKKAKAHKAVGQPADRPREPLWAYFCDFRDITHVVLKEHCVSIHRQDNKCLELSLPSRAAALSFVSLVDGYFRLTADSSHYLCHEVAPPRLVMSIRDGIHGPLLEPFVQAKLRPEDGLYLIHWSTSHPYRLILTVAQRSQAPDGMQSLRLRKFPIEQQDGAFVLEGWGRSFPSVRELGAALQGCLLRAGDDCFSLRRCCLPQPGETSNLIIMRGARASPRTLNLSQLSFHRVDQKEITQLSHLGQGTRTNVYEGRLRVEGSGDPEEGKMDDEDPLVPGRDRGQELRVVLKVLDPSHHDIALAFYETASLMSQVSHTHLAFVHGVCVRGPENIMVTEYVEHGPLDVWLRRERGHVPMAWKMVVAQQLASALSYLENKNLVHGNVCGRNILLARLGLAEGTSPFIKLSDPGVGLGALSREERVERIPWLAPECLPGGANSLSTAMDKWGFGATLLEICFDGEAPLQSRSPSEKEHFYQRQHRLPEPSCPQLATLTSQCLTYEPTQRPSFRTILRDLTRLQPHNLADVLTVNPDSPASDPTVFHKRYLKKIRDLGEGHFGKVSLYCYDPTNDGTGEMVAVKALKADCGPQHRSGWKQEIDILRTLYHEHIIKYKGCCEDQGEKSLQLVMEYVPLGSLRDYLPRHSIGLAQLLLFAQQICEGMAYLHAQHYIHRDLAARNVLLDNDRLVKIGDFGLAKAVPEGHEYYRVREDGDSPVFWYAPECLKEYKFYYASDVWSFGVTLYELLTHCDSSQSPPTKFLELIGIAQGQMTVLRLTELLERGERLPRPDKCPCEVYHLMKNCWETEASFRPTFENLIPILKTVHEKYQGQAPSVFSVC
T2 sequence (P23458 whole entry): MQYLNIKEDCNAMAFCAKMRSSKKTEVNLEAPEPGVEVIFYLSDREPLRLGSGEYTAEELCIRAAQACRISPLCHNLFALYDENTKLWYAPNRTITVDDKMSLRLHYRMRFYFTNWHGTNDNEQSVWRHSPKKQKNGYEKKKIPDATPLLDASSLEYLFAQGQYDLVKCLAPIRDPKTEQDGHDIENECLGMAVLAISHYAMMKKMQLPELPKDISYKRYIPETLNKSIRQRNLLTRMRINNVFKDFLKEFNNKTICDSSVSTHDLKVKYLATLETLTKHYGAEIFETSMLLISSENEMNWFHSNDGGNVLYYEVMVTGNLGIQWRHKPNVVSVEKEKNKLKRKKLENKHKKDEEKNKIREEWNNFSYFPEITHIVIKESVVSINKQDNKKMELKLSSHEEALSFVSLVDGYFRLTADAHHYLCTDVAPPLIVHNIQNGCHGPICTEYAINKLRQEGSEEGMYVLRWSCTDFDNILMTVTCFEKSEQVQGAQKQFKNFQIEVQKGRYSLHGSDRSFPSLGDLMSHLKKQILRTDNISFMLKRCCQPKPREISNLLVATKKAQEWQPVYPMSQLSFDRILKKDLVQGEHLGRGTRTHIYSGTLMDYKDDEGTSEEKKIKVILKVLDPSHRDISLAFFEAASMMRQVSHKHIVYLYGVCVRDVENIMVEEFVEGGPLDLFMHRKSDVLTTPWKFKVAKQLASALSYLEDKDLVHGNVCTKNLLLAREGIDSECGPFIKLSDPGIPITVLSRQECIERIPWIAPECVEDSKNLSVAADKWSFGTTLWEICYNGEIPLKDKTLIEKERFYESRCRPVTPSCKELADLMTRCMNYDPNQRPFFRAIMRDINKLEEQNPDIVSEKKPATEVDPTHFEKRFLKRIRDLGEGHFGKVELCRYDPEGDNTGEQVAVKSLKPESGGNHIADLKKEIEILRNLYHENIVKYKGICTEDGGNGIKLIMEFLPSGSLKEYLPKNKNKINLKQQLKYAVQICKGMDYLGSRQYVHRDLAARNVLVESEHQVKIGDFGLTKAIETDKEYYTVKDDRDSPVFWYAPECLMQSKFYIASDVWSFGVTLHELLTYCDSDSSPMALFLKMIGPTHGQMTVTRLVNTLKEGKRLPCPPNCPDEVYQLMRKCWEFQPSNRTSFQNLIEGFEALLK

With `Cn1cc(C(F)(F)F)cc(Nc2nc3ncc(Oc4ccnc(NC(=O)OCCN5CCOCC5)c4)c(C#N)c3n2C)c1=O` [Example I-15, 2-Morpholinoethyl(4-((7-cyano-1-methyl-2-((1-methyl-2-oxo-5-(trifluoromethyl)-1,2-dihydropyridin-3-yl)amino)-1H-imidazo[4,5-b]pyridin-6-yl)oxy)pyridin-2-yl)carbamate], the Kd in data set [1] is under 10 nM. Besides, the “JAK1/JAK2 Kd/Kd ratio” value at JAK1 was “B (Kd/Kd ratio <1000 and ≥300)”. Also, on JAK3, the “JAK3/JAK2 Kd/Kd ratio” value is “A (Kd/Kd ratio ≥1000)”. The “TYK2/JAK2 Kd/Kd ratio” value on Tyk2 is “B (Kd/Kd ratio <1000 and ≥300)”. This compound showed a solubility at 2 h in “Kinetic Solubility Assay” of 9 to 100 µM (≈ 5.52 to 61.4 µg/mL).
On to `Cn1cc(C(F)(F)F)cc(Nc2nc3ncc(Oc4ccnc(NC(=O)O[C@@H]5CCOC5)c4)c(C#N)c3n2C)c1=O` [Example I-18, (R)-Tetrahydrofuran-3-yl(4-((7-cyano-1-methyl-2-((1-methyl-2-oxo-5-(trifluoromethyl)-1,2-dihydropyridin-3-yl)amino)-1H-imidazo[4,5-b]pyridin-6-yl)oxy)pyridin-2-yl)carbamate], for which the Kd in data set [1] is under 10 nM. Also, on JAK1, the “JAK1/JAK2 Kd/Kd ratio” value is “C (Kd/Kd ratio <300 and ≥100)”. Also, the “JAK3/JAK2 Kd/Kd ratio” value on JAK3 is “A (Kd/Kd ratio ≥1000)”. Also, the “TYK2/JAK2 Kd/Kd ratio” value at Tyk2 was “C (Kd/Kd ratio <300 and ≥100)”. Further, the solubility at 2 h in the data set “Kinetic Solubility Assay” was 0.1 to 9 µM (≈ 0.057 to 5.13 µg/mL).
As for `CO[C@@H]1CCN(C(=O)Nc2cc(Oc3cnc4nc(Nc5cc6n(n5)CCC65CCC5)n(C)c4c3C#N)ccn2)C1` [Example I-60, (R)-N-(4-((7-cyano-2-((5′,6′-dihydrospiro[cyclobutane-1,4′-pyrrolo[1,2-b]pyrazol]-2′-yl)amino)-1-methyl-1H-imidazo[4,5-b]pyridin-6-yl)oxy)pyridin-2-yl)-3-methoxypyrrolidine-1-carboxamide], the Kd in data set [1] was under 10 nM. Besides, at JAK1, the “JAK1/JAK2 Kd/Kd ratio” value was “B (Kd/Kd ratio <1000 and ≥300)”. Also, at JAK3, the “JAK3/JAK2 Kd/Kd ratio” value was “B (Kd/Kd ratio <1000 and ≥300)”. On Tyk2, the “TYK2/JAK2 Kd/Kd ratio” value is reported as “D (Kd/Kd ratio <100)”. Moreover, the solubility at 2 h in the data set “Kinetic Solubility Assay” fell in the range of 9 to 100 µM (≈ 4.99 to 55.5 µg/mL).
Regarding `COC1CN(C(=O)Nc2cc(Oc3cnc4nc(Nc5cc6n(n5)CCC65CCC5)n(C)c4c3C#N)ccn2)C1` [Example I-61, N-(4-((7-cyano-2-((5′,6′-dihydrospiro[cyclobutane-1,4′-pyrrolo[1,2-b]pyrazol]-2′-yl)amino)-1-methyl-1H-imidazo[4,5-b]pyridin-6-yl)oxy)pyridin-2-yl)-3-methoxyazetidine carboxamide], the Kd in data set [1] is under 10 nM. Also, at JAK1, the “JAK1/JAK2 Kd/Kd ratio” value is “A (Kd/Kd ratio ≥1000)”. In addition, the “JAK3/JAK2 Kd/Kd ratio” value on JAK3 is recorded as “A (Kd/Kd ratio ≥1000)”. For the same compound, the “TYK2/JAK2 Kd/Kd ratio” value at Tyk2 is reported as “D (Kd/Kd ratio <100)”. In “Kinetic Solubility Assay”, this compound yielded a solubility at 2 h of 0.1 to 9 µM (≈ 0.0541 to 4.87 µg/mL).
With `COCCOC(=O)Nc1cc(Oc2cnc3nc(Nc4cc5n(n4)CCC54CCC4)n(C)c3c2C#N)ccn1` [Example I-62, 2-methoxyethyl(4-((7-cyano-2-((5′,6′-dihydrospiro[cyclobutane-1,4′-pyrrolo[1,2-b]pyrazol]-2′-yl)amino)-1-methyl-1H-imidazo[4,5-b]pyridin-6-yl)oxy)pyridin-2-yl)carbamate], the Kd in data set [1] was under 10 nM. For the same compound, the “JAK1/JAK2 Kd/Kd ratio” value at JAK1 is “B (Kd/Kd ratio <1000 and ≥300)”. Moreover, the “JAK3/JAK2 Kd/Kd ratio” value on JAK3 is on record as “A (Kd/Kd ratio ≥1000)”. In addition, at Tyk2, the “TYK2/JAK2 Kd/Kd ratio” value was “C (Kd/Kd ratio <300 and ≥100)”. In “Kinetic Solubility Assay”, this compound returned a solubility at 2 h of 0.1 to 9 µM (≈ 0.053 to 4.77 µg/mL).
As for `COCC(=O)Nc1cc(Oc2cnc3nc(Nc4cc(C(F)(F)F)cn(C)c4=O)n(C)c3c2Cl)ccn1` [Example I-75, N-(4-((7-chloro-1-methyl-2-((1-methyl-2-oxo-5-(trifluoromethyl)-1,2-dihydropyridin-3-yl)amino)-1H-imidazo[4,5-b]pyridin-6-yl)oxy)pyridin-2-yl)-2-methoxyacetamide], the Kd in data set [1] was under 10 nM. The “JAK1/JAK2 Kd/Kd ratio” value at JAK1 is on record as “A (Kd/Kd ratio ≥1000)”. The “JAK3/JAK2 Kd/Kd ratio” value at JAK3 is on record as “A (Kd/Kd ratio ≥1000)”. The “TYK2/JAK2 Kd/Kd ratio” value on Tyk2 was “C (Kd/Kd ratio <300 and ≥100)”. Also, in the data set “Kinetic Solubility Assay”, the solubility at 2 h lay within 0.1 to 9 µM (≈ 0.0538 to 4.84 µg/mL).
